Results from PMC4890880 (ACS infectious diseases, 2016).
Like-named read-outs stand apart in the source and are kept apart here.

Key:
[1] = system: HepG2-A16-CD81EGFP cells; conditions: for IC50: read-out: Tox_IC50, HepG2 cytotoxicity
[2] = system: Plasmodium berghei (Pb-Luc) exoerythrocytic-stage parasites; conditions: for normalized signal at concentration 10 / normalized signal at concentration 0.000508053 / normalized signal at concentration 0.00152416 / normalized signal at concentration 0.00457247 / normalized signal at concentration 0.0137174 / normalized signal at concentration 0.0411523 / normalized signal at concentration 0.123457 / normalized signal at concentration 0.37037 / normalized signal at concentration 1.11111 / normalized signal at concentration 3.33333 / normalized signal at 0.000508053 (first series) / normalized signal at 0.000508053 (second series) / normalized signal at 0.00152416 (first series) / normalized signal at 0.00152416 (second series) / normalized signal at 0.00457247 (first series) / normalized signal at 0.00457247 (second series) / normalized signal at 0.0137174 (first series) / normalized signal at 0.0137174 (second series) / normalized signal at 0.0411523 (first series) / normalized signal at 0.0411523 (second series) / normalized signal at 0.123457 (first series) / normalized signal at 0.123457 (second series) / normalized signal at 0.37037 (first series) / normalized signal at 0.37037 (second series) / normalized signal at 1.11111 (first series) / normalized signal at 1.11111 (second series) / normalized signal at 3.33333 (first series) / normalized signal at 3.33333 (second series) / normalized signal at 10 (first series) / normalized signal at 10 (second series): fraction of control; for IC50: read-out: PbLuc_IC50; for normalized signal at 0.000508053 (first series): concentration 0.000508053, first replicate series; for normalized signal at 0.000508053 (second series): concentration 0.000508053, second replicate series; for normalized signal at 0.00152416 (first series): concentration 0.00152416, first replicate series; for normalized signal at 0.00152416 (second series): concentration 0.00152416, second replicate series; for normalized signal at 0.00457247 (first series): concentration 0.00457247, first replicate series; for normalized signal at 0.00457247 (second series): concentration 0.00457247, second replicate series; for normalized signal at 0.0137174 (first series): concentration 0.0137174, first replicate series; for normalized signal at 0.0137174 (second series): concentration 0.0137174, second replicate series; for normalized signal at 0.0411523 (first series): concentration 0.0411523, first replicate series; for normalized signal at 0.0411523 (second series): concentration 0.0411523, second replicate series; for normalized signal at 0.123457 (first series): concentration 0.123457, first replicate series; for normalized signal at 0.123457 (second series): concentration 0.123457, second replicate series; for normalized signal at 0.37037 (first series): concentration 0.37037, first replicate series; for normalized signal at 0.37037 (second series): concentration 0.37037, second replicate series; for normalized signal at 1.11111 (first series): concentration 1.11111, first replicate series; for normalized signal at 1.11111 (second series): concentration 1.11111, second replicate series; for normalized signal at 3.33333 (first series): concentration 3.33333, first replicate series; for normalized signal at 3.33333 (second series): concentration 3.33333, second replicate series; for normalized signal at 10 (first series): concentration 10, first replicate series; for normalized signal at 10 (second series): concentration 10, second replicate series; for normalised signal at concentration 10 (first series): concentration 10, first series of dose columns; for normalised signal at concentration 10 (second series): concentration 10, second series of dose columns
[3] = sheet 2nd round, maximal inhibition in dose response
[4] = 2nd round, maximal inhibition in dose series
[5] = 2nd round, Broad DOS compounds, unit not printed (dose series head 10 to 0.000508053)
[6] = sheet "2nd round", Broad compounds, dose response top concentration 10

C[C@@H]1CCCCO[C@@H](CN(C)S(=O)(=O)c2ccc(F)cc2)[C@@H](C)CN([C@@H](C)CO)C(=O)c2cc(N(C)C)ccc2O1 [BRD-K74261250-001-01-9]
IC50 ([1]; sheet 2nd round): > 10 µM | Tox_max_inhibition (%) [1, 3]: 6.44% | normalized signal at concentration 10 ([2]; first series of dose-response columns): 0.8467 | normalized signal at concentration 0.000508053 ([2]; first series): 1.172 | normalized signal at concentration 0.00152416 ([2]; first series): 0.9183 | normalized signal at concentration 0.00457247 ([2]; first series): 0.77 | normalized signal at concentration 0.0137174 ([2]; first series): 1.0389 | normalized signal at concentration 0.0411523 ([2]; first series): 0.8236 | normalized signal at concentration 0.123457 ([2]; first series): 0.9547 | normalized signal at concentration 0.37037 ([2]; first series): 1.005 | normalized signal at concentration 1.11111 ([2]; first series): 0.9156 | normalized signal at concentration 3.33333 ([2]; first series): 1.13 | IC50 ([2]; sheet 2nd round, Broad compounds, dose response): > 10 µM | normalized signal at concentration 10 ([2]; second series of dose-response columns): 0.7483 | normalized signal at concentration 0.000508053 ([2]; second series): 1.01 | normalized signal at concentration 0.00152416 ([2]; second series): 0.834 | normalized signal at concentration 0.00457247 ([2]; second series): 1.154 | normalized signal at concentration 0.0137174 ([2]; second series): 0.7879 | normalized signal at concentration 0.0411523 ([2]; second series): 0.9255 | normalized signal at concentration 0.123457 ([2]; second series): 1.124 | normalized signal at concentration 0.37037 ([2]; second series): 0.8451 | normalized signal at concentration 1.11111 ([2]; second series): 0.9426 | normalized signal at concentration 3.33333 ([2]; second series): 1.1 | PbLuc_max_inhibition (%) [2, 3]: 25%

COc1ccc(NC(=O)N(C)C[C@H]2Oc3c(NC(=O)CCCCCC(=O)Nc4ccccc4N)cccc3C(=O)N([C@H](C)CO)C[C@H]2C)cc1 [BRD-K75018854-001-01-2]
Tox_max_inhibition (%) [1, 4]: 8% | IC50 ([1]; 2nd round, unit inferred): > 10 µM | PbLuc_max_inhibition (%) [2, 4]: 27% | normalized signal at 0.000508053 (first series) [2]: 1.05 | normalized signal at 0.000508053 (second series) [2]: 0.8619 | normalized signal at 0.00152416 (first series) [2]: 0.9022 | normalized signal at 0.00152416 (second series) [2]: 0.7297 | normalized signal at 0.00457247 (first series) [2]: 1.1676 | normalized signal at 0.00457247 (second series) [2]: 0.8627 | normalized signal at 0.0137174 (first series) [2]: 0.9808 | normalized signal at 0.0137174 (second series) [2]: 0.929 | normalized signal at 0.0411523 (first series) [2]: 1.1704 | normalized signal at 0.0411523 (second series) [2]: 0.8231 | normalized signal at 0.123457 (first series) [2]: 1.053 | normalized signal at 0.123457 (second series) [2]: 1.0322 | normalized signal at 0.37037 (first series) [2]: 0.9438 | normalized signal at 0.37037 (second series) [2]: 0.8176 | normalized signal at 1.11111 (first series) [2]: 0.9278 | normalized signal at 1.11111 (second series) [2]: 0.8826 | normalized signal at 3.33333 (first series) [2]: 1.001 | normalized signal at 3.33333 (second series) [2]: 1.022 | normalized signal at 10 (first series) [2]: 0.9917 | normalized signal at 10 (second series) [2]: 1.205 | IC50 [2, 5]: > 10 µM

O=C(Nc1ccccc1F)N1CCCCN2[C@@H](CO)[C@@H](c3ccc(/C=C/c4ccccc4)cc3)[C@@H]2C1 [BRD-K75724375-001-01-5]
IC50 ([1]; sheet "2nd round"): > 10 µM | Tox_max_inhibition (%) ([1]; sheet "2nd round"): 3.77% | normalised signal at concentration 0.000508053 (first series) [2]: 0.9105 | normalised signal at concentration 0.000508053 (second series) [2]: 0.9278 | normalised signal at concentration 0.00152416 (first series) [2]: 1.073 | normalised signal at concentration 0.00152416 (second series) [2]: 0.9037 | normalised signal at concentration 0.00457247 (first series) [2]: 0.819 | normalised signal at concentration 0.00457247 (second series) [2]: 0.9578 | normalised signal at concentration 0.0137174 (first series) [2]: 0.8286 | normalised signal at concentration 0.0137174 (second series) [2]: 0.9852 | normalised signal at concentration 0.0411523 (first series) [2]: 0.8408 | normalised signal at concentration 0.0411523 (second series) [2]: 0.7698 | normalised signal at concentration 0.123457 (first series) [2]: 0.9337 | normalised signal at concentration 0.123457 (second series) [2]: 1.085 | normalised signal at concentration 0.37037 (first series) [2]: 0.7789 | normalised signal at concentration 0.37037 (second series) [2]: 1.01 | normalised signal at concentration 1.11111 (first series) [2]: 1.025 | normalised signal at concentration 1.11111 (second series) [2]: 0.8416 | normalised signal at concentration 3.33333 (first series) [2]: 0.8686 | normalised signal at concentration 3.33333 (second series) [2]: 0.672 | normalised signal at concentration 10 (first series) [2]: 0.5018 | normalised signal at concentration 10 (second series) [2]: 0.4819 | IC50 [2, 6]: > 10 µM | PbLuc_max_inhibition (%) ([2]; sheet "2nd round"): 52%

C[C@@H]1CN([C@H](C)CO)C(=O)c2ccccc2-c2ccccc2CO[C@H]1CN(C)C(=O)[C@H](Cc1ccccc1)N(C)C [BRD-K75961033-001-01-7]
Tox_max_inhibition (%) [1, 4]: 5.71% | IC50 ([1]; 2nd round, unit inferred): > 10 µM | PbLuc_max_inhibition (%) [2, 4]: 45% | normalized signal at 0.000508053 (first series) [2]: 1.06 | normalized signal at 0.000508053 (second series) [2]: 0.8091 | normalized signal at 0.00152416 (first series) [2]: 0.9571 | normalized signal at 0.00152416 (second series) [2]: 0.6896 | normalized signal at 0.00457247 (first series) [2]: 0.9675 | normalized signal at 0.00457247 (second series) [2]: 0.699 | normalized signal at 0.0137174 (first series) [2]: 1.117 | normalized signal at 0.0137174 (second series) [2]: 0.795 | normalized signal at 0.0411523 (first series) [2]: 0.9735 | normalized signal at 0.0411523 (second series) [2]: 0.8267 | normalized signal at 0.123457 (first series) [2]: 0.9249 | normalized signal at 0.123457 (second series) [2]: 0.6648 | normalized signal at 0.37037 (first series) [2]: 0.9974 | normalized signal at 0.37037 (second series) [2]: 0.9501 | normalized signal at 1.11111 (first series) [2]: 1.014 | normalized signal at 1.11111 (second series) [2]: 0.8135 | normalized signal at 3.33333 (first series) [2]: 0.9327 | normalized signal at 3.33333 (second series) [2]: 0.5506 | normalized signal at 10 (first series) [2]: 0.7489 | normalized signal at 10 (second series) [2]: 0.6892 | IC50 [2, 5]: > 10 µM

C[C@@H]1CCCCO[C@H](CN(C)S(=O)(=O)c2ccc(F)cc2)[C@H](C)CN([C@H](C)CO)C(=O)c2cc(N(C)C)ccc2O1 [BRD-K77041516-001-01-2]
IC50 ([1]; sheet "2nd round"): > 10 µM | Tox_max_inhibition (%) ([1]; sheet "2nd round"): 4.38% | normalised signal at concentration 0.000508053 (first series) [2]: 1.187 | normalised signal at concentration 0.000508053 (second series) [2]: 0.9225 | normalised signal at concentration 0.00152416 (first series) [2]: 0.8332 | normalised signal at concentration 0.00152416 (second series) [2]: 0.8694 | normalised signal at concentration 0.00457247 (first series) [2]: 0.9468 | normalised signal at concentration 0.00457247 (second series) [2]: 0.8206 | normalised signal at concentration 0.0137174 (first series) [2]: 0.8125 | normalised signal at concentration 0.0137174 (second series) [2]: 0.9272 | normalised signal at concentration 0.0411523 (first series) [2]: 0.9511 | normalised signal at concentration 0.0411523 (second series) [2]: 0.9568 | normalised signal at concentration 0.123457 (first series) [2]: 1.006 | normalised signal at concentration 0.123457 (second series) [2]: 0.7947 | normalised signal at concentration 0.37037 (first series) [2]: 0.8766 | normalised signal at concentration 0.37037 (second series) [2]: 1.201 | normalised signal at concentration 1.11111 (first series) [2]: 1.15 | normalised signal at concentration 1.11111 (second series) [2]: 1.082 | normalised signal at concentration 3.33333 (first series) [2]: 0.9005 | normalised signal at concentration 3.33333 (second series) [2]: 1.135 | normalised signal at concentration 10 (first series) [2]: 0.8572 | normalised signal at concentration 10 (second series) [2]: 0.9617 | IC50 [2, 6]: > 10 µM | PbLuc_max_inhibition (%) ([2]; sheet "2nd round"): 21%
